Measurements: ChEMBL document CHEMBL5316381, “Discovery of [1,2,3]Triazolo[4,5-c]quinoline Derivatives as a New Class of Ataxia-Telangiectasia Mutated Kinase Inhibitors” (ACS Med Chem Lett, 2023)
The source made the active and inactive calls. The calls are words filed in the database; no cut-off is given here.

Columns and labels:
[1] = target: T1, Serine-protein kinase ATM (Homo sapiens, UniProt Q13315); assay: Inhibition of ATM (unknown origin) using GST-cMyc-p53 as substrate incubated for 30 mins in presence of Mg/ATP mix by HTRF-based analysis
[2] = target: Serine/threonine-protein kinase Chk2 (Homo sapiens) (UniProt O96017); assay: Inhibition of Chk2 phosphorylation in human SW620 cells with IR-induced DNA damage assessed as fold change in phosphorylated Chk2 protein level at 250 nM in the presence of 1.5 Gy irradiation by Western blot analysis relative to control; format: cell-based
[3] = target: T1, Serine-protein kinase ATM; assay: Inhibition of ATM phosphorylation in human SW620 cells with IR-induced DNA damage assessed as fold change in phosphorylated ATM protein level at 9 nM in the presence of 3 Gy irradiation by Western blot analysis relative to control; format: cell-based
[4] = target: Serine/threonine-protein kinase Chk2 (Homo sapiens) (UniProt O96017); assay: Inhibition of Chk2 phosphorylation in human SW620 cells with IR-induced DNA damage assessed as fold change in phosphorylated Chk2 protein level at 250 nM in the presence of 3 Gy irradiation by Western blot analysis relative to control; format: cell-based
[5] = target: T1, Serine-protein kinase ATM; assay: Inhibition of ATM phosphorylation in human SW620 cells with IR-induced DNA damage assessed as fold change in phosphorylated ATM protein level at 250 nM in the presence of 3 Gy irradiation by Western blot analysis relative to control; format: cell-based
[6] = target: Serine/threonine-protein kinase Chk2 (Homo sapiens) (UniProt O96017); assay: Inhibition of CPT-11 induced Chk2 phosphorylation in human SW620 cells assessed as fold change in phosphorylated chk2 protein level at 30 nM by SDS-PAGE based Western blot analysis relative to control; format: cell-based
[7] = target: T1, Serine-protein kinase ATM; assay: Inhibition of ATM phosphorylation in human SW620 cells with IR-induced DNA damage assessed as fold change in phosphorylated ATM protein level at 27 nM in the presence of 3 Gy irradiation by Western blot analysis relative to control; format: cell-based
[8] = target: Serine/threonine-protein kinase Chk2 (Homo sapiens) (UniProt O96017); assay: Inhibition of Chk2 phosphorylation in human SW620 cells with IR-induced DNA damage assessed as fold change in phosphorylated Chk2 protein level at 27 nM in the presence of 1.5 Gy irradiation by Western blot analysis relative to control; format: cell-based
[9] = target: T1, Serine-protein kinase ATM; assay: Inhibition of ATM phosphorylation in human SW620 cells with IR-induced DNA damage assessed as fold change in phosphorylated ATM protein level at 3 nM in the presence of 3 Gy irradiation by Western blot analysis relative to control; format: cell-based
[10] = target: Serine/threonine-protein kinase Chk2 (Homo sapiens) (UniProt O96017); assay: Inhibition of Chk2 phosphorylation in human SW620 cells with IR-induced DNA damage assessed as fold change in phosphorylated Chk2 protein level at 3 nM in the presence of 3 Gy irradiation by Western blot analysis relative to control; format: cell-based
[11] = target: Serine/threonine-protein kinase Chk2 (Homo sapiens) (UniProt O96017); assay: Inhibition of Chk2 phosphorylation in human SW620 cells with IR-induced DNA damage assessed as fold change in phosphorylated Chk2 protein level at 3 nM in the presence of 1.5 Gy irradiation by Western blot analysis relative to control; format: cell-based
[12] = target: Serine/threonine-protein kinase Chk2 (Homo sapiens) (UniProt O96017); assay: Inhibition of Chk2 phosphorylation in human SW620 cells with IR-induced DNA damage assessed as fold change in phosphorylated Chk2 protein level at 83 nM in the presence of 1.5 Gy irradiation by Western blot analysis relative to control; format: cell-based
[13] = target: Serine/threonine-protein kinase Chk2 (Homo sapiens) (UniProt O96017); assay: Inhibition of Chk2 phosphorylation in human SW620 cells with IR-induced DNA damage assessed as fold change in phosphorylated Chk2 protein level at 27 nM in the presence of 3 Gy irradiation by Western blot analysis relative to control; format: cell-based
SW-620 [14] = assay: Radiosensitizing activity against human SW620 cells assessed as reduction in colony formation at 9 nM incubated after 14 days in the presence of 1.5 Gy irradiation by crystal violet staining based analysis; format: functional, cell-based; conditions: time 14.0 day
SW-620 [15] = assay: Radiosensitizing activity against human SW620 cells assessed as reduction in colony formation at 27 nM incubated after 14 days in the presence of 3 Gy irradiation by crystal violet staining based analysis; format: functional, cell-based; conditions: time 14.0 day
SW-620 [16] = assay: Radiosensitizing activity against human SW620 cells assessed as reduction in colony formation at 27 nM incubated after 14 days in the presence of 1.5 Gy irradiation by crystal violet staining based analysis; format: functional, cell-based; conditions: time 14.0 day
[17] = target: Serine/threonine-protein kinase Chk2 (Homo sapiens) (UniProt O96017); assay: Inhibition of CPT-11 induced Chk2 phosphorylation in human SW620 cells assessed as fold change in phosphorylated chk2 protein level at 3 nM by SDS-PAGE based Western blot analysis relative to control; format: cell-based
[18] = target: Serine/threonine-protein kinase Chk2 (Homo sapiens) (UniProt O96017); assay: Inhibition of CPT-11 induced Chk2 phosphorylation in human SW620 cells assessed as fold change in phosphorylated chk2 protein level at 1 nM by SDS-PAGE based Western blot analysis relative to control; format: cell-based
[19] = target: Serine/threonine-protein kinase Chk2 (Homo sapiens) (UniProt O96017); assay: Inhibition of CPT-11 induced Chk2 phosphorylation in human SW620 cells assessed as fold change in phosphorylated chk2 protein level at 10 nM by SDS-PAGE based Western blot analysis relative to control; format: cell-based
SW-620 [20] = assay: Antiproliferative activity against human SW620 cells assessed as reduction in colony formation at 9 nM measured after 14 days by crystal violet staining based microscopic analysis; format: functional, cell-based; conditions: time 14.0 day
[21] = target: T1, Serine-protein kinase ATM; assay: Inhibition of ATM phosphorylation in human SW620 cells with IR-induced DNA damage assessed as fold change in phosphorylated ATM protein level at 83 nM in the presence of 3 Gy irradiation by Western blot analysis relative to control; format: cell-based
[22] = target: Serine/threonine-protein kinase Chk2 (Homo sapiens) (UniProt O96017); assay: Inhibition of Chk2 phosphorylation in human SW620 cells with IR-induced DNA damage assessed as fold change in phosphorylated Chk2 protein level at 9 nM in the presence of 3 Gy irradiation by Western blot analysis relative to control; format: cell-based
[23] = target: Serine/threonine-protein kinase Chk2 (Homo sapiens) (UniProt O96017); assay: Inhibition of Chk2 phosphorylation in human SW620 cells with IR-induced DNA damage assessed as fold change in phosphorylated Chk2 protein level at 9 nM in the presence of 1.5 Gy irradiation by Western blot analysis relative to control; format: cell-based
SW-620 [24] = assay: Antiproliferative activity against human SW620 cells assessed as reduction in colony formation at 27 nM measured after 14 days by crystal violet staining based microscopic analysis; format: functional, cell-based; conditions: time 14.0 day
[25] = target: Serine/threonine-protein kinase Chk2 (Homo sapiens) (UniProt O96017); assay: Inhibition of Chk2 phosphorylation in human SW620 cells with IR-induced DNA damage assessed as fold change in phosphorylated Chk2 protein level at 83 nM in the presence of 3 Gy irradiation by Western blot analysis relative to control; format: cell-based
[26] = target: Serine/threonine-protein kinase Chk2 (Homo sapiens) (UniProt O96017); assay: Inhibition of CPT-11 induced Chk2 phosphorylation in human SW620 cells by SDS-PAGE based Westernblot analysis; format: cell-based
SW-620 [27] = assay: Radiosensitizing activity against human SW620 cells assessed as reduction in colony formation at 9 nM incubated after 14 days in the presence of 3 Gy irradiation by crystal violet staining based analysis; format: functional, cell-based; conditions: time 14.0 day

T1 sequence (Q13315 whole entry): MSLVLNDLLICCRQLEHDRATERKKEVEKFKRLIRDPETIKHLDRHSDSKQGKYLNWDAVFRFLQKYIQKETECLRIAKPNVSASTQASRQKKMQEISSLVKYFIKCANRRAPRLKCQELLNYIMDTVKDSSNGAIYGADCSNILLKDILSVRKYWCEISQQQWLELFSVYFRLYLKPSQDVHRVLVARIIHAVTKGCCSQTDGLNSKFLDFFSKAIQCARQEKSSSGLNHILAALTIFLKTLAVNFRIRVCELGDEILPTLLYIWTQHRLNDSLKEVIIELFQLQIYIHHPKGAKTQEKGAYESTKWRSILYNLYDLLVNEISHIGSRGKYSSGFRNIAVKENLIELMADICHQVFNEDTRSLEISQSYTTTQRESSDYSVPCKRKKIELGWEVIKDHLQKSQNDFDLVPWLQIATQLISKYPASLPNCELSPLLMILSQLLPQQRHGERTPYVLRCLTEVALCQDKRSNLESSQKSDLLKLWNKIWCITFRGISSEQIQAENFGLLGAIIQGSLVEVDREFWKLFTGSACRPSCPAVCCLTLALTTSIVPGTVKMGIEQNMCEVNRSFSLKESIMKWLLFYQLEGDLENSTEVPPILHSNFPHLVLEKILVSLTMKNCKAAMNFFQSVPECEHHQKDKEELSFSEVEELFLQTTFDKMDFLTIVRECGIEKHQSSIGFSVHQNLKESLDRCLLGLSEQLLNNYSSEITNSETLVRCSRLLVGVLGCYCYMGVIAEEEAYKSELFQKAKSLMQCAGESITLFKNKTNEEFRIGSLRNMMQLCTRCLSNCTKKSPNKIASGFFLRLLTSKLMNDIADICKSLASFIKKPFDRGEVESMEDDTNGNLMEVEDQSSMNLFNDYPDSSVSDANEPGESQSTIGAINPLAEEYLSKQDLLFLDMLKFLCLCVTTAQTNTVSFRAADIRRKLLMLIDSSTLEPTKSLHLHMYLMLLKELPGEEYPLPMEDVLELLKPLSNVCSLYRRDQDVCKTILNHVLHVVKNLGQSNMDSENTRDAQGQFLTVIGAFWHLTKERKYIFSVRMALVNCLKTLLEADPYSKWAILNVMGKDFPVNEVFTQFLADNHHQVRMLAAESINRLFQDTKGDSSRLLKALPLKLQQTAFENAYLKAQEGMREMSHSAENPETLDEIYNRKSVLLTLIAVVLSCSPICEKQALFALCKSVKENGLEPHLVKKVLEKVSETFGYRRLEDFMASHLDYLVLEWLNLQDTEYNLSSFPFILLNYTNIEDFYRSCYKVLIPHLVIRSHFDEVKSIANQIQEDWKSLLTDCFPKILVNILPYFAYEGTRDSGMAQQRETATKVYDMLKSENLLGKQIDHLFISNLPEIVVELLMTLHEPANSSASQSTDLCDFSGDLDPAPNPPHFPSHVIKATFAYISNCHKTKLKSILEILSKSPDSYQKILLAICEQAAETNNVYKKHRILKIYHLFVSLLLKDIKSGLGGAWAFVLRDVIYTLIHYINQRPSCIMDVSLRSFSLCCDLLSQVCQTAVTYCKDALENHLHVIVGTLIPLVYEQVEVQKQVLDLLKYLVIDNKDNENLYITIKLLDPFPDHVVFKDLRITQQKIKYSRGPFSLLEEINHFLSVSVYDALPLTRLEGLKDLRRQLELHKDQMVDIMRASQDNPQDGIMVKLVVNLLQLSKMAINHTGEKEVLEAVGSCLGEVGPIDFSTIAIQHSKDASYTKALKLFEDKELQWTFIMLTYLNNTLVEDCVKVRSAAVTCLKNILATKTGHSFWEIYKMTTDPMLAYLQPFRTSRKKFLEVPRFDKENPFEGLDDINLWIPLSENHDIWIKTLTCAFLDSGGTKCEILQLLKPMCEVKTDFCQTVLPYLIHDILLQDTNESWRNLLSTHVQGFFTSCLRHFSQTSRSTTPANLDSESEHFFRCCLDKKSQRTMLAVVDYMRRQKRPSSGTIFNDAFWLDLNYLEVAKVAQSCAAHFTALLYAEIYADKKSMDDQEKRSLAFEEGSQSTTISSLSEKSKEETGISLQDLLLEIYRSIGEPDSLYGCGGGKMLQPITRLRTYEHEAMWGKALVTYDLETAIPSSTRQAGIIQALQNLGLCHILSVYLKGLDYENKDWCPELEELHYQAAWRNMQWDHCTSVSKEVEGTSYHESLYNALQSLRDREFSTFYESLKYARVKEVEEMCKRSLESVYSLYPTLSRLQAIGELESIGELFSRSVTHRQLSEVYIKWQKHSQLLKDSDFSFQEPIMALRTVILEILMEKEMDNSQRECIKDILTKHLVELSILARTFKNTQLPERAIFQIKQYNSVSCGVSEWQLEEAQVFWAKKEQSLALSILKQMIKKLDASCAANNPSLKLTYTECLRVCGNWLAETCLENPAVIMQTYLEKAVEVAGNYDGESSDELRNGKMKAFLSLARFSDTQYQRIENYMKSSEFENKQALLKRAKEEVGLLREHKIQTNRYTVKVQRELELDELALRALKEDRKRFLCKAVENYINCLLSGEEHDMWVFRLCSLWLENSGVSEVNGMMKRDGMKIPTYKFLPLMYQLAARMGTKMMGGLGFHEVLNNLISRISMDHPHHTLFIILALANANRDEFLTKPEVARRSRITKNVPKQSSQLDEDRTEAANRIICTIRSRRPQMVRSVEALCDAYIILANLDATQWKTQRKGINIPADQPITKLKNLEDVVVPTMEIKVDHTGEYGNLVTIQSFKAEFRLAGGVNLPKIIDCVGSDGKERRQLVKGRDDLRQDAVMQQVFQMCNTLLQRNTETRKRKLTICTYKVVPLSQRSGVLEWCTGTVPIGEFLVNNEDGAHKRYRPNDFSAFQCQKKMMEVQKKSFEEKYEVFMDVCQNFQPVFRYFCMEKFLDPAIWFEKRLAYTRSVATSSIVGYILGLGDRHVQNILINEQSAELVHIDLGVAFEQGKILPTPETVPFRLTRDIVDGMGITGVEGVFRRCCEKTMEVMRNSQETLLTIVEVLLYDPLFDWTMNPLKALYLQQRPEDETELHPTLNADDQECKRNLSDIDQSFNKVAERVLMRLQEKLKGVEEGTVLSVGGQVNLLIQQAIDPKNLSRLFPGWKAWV
Chain of Serine/threonine-protein kinase Chk2 (Homo sapiens) (O96017 whole entry): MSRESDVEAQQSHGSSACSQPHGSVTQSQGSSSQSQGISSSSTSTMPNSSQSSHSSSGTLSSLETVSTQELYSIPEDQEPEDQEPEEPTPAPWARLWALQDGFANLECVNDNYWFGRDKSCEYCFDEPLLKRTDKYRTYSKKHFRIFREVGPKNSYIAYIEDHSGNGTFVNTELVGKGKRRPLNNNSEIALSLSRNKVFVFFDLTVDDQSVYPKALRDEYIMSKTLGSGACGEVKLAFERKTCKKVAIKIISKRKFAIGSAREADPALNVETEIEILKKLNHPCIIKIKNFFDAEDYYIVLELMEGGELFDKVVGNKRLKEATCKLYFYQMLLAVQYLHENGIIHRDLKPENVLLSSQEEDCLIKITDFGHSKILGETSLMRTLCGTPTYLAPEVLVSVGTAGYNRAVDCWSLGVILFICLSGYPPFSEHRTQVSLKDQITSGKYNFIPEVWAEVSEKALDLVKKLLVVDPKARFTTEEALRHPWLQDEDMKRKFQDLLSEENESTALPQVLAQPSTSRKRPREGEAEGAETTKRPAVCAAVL

C[C@H](c1ccccc1)n1nnc2cnc3ccc(-c4ccc(C(F)(F)F)nc4)cc3c21
IC50 [1]: 225 nM

CC(C)n1nnc2cnc3ccc(-c4ccc(N)nc4)cc3c21
IC50 [1]: 20 nM

C[C@H](c1ccccc1)n1nnc2cnc3ccc(-c4ccnc(N)c4)cc3c21
IC50 [1]: 22 nM

COc1ccc([C@H](C)n2nnc3cnc4ccc(-c5ccc(N)nc5)cc4c32)cc1
IC50 [1]: 103 nM

C[C@H](c1ccccc1)n1nnc2cnc3ccc(-c4cccnc4)cc3c21
IC50 [1]: 9 nM

C[C@H](c1ccccc1)n1nnc2cnc3ccc(-c4ccc(O)cc4)cc3c21
IC50 [1]: 52 nM

C[C@H](c1ccccc1)n1nnc2cnc3ccc(-c4ccc(N)nc4)cc3c21
IC50 [1]: 2 nM

C[C@H](c1ccccc1)n1nnc2cnc3ccc(-c4ccc(OCCCN5CCCC5)nc4)cc3c21
IC50 [1]: 2 nM

C[C@H](c1ccccc1)n1nnc2cnc3ccc(-c4ccc(O)nc4)cc3c21
IC50 [1]: 25 nM

CNCCCOc1ccc(-c2ccc3ncc4nnn([C@H](C)c5ccccc5)c4c3c2)cn1
IC50 [1]: 166 nM

CC[C@H](c1ccccc1)n1nnc2cnc3ccc(-c4ccc(N)nc4)cc3c21
IC50 [1]: 9 nM

C[C@H](c1ccccc1)n1nnc2cnc3ccc(-c4ccc(F)cc4)cc3c21
IC50 [1]: 174 nM

C[C@@H](c1cccc(F)c1)n1nnc2cnc3ccc(-c4ccc(N)nc4)cc3c21
IC50 [1]: 53 nM

CC(C)n1c(=O)n(C)c2cnc3cc(F)c(-c4ccc(OCCCN5CCCCC5)nc4)cc3c21
fold change (FC) [2]: 0.58 | fold change (FC) [3]: 1.34 | fold change (FC) [4]: 0.25 | fold change (FC) [5]: 0.61 | fold change (FC) [6]: 0.56 | fold change (FC) [7]: 1 | fold change (FC) [8]: 1.2 | fold change (FC) [9]: 1.36 | fold change (FC) [10]: 4.2 | fold change (FC) [11]: 0.92 | fold change (FC) [12]: 1 | fold change (FC) [13]: 0.6 | Activity (SW-620 [14]): Active | Activity (SW-620 [15]): Active | Activity (SW-620 [16]): Active | fold change (FC) [17]: 1.9 | fold change (FC) [18]: 2.5 | fold change (FC) [19]: 1.6 | Activity (SW-620 [20]): inactive | fold change (FC) [21]: 0.8 | fold change (FC) [22]: 1.8 | fold change (FC) [23]: 0.92 | Activity (SW-620 [24]): inactive | fold change (FC) [25]: 0.35 | inhibition [26]: Dose-Dependent Effect | Activity (SW-620 [27]): Active

C[C@H](c1cccc(F)c1)n1nnc2cnc3ccc(-c4ccc(N)nc4)cc3c21
IC50 [1]: 4 nM

CC(=O)Nc1ccc(-c2ccc3ncc4nnn([C@H](C)c5ccccc5)c4c3c2)cn1
IC50 [1]: 13 nM

C[C@@H](c1ccccc1)n1nnc2cnc3ccc(-c4ccc(N)nc4)cc3c21
IC50 [1]: 45 nM

C[C@H](c1ccccc1)n1nnc2cnc3ccc(-c4ccc(OCCCN5CCCCC5)nc4)cc3c21
IC50 [1]: 2 nM

C[C@H](c1ccccc1)n1nnc2cnc3ccc(-c4ccc(OCCCCN(C)C)nc4)cc3c21
IC50 [1]: 10 nM

C[C@H](c1ccccc1)n1nnc2cnc3ccc(-c4cnc(N)nc4)cc3c21
IC50 [1]: 15 nM

C[C@@H](c1ccc(F)cc1)n1nnc2cnc3ccc(-c4ccc(N)nc4)cc3c21
IC50 [1]: 250 nM

COc1ccc(-c2ccc3ncc4nnn([C@H](C)c5ccccc5)c4c3c2)cn1
IC50 [1]: 13 nM

C[C@H](c1ccccc1)n1nnc2cnc3ccc(-c4ccc(Cl)nc4)cc3c21
IC50 [1]: 31 nM

C[C@H](c1ccccc1)n1nnc2cnc3ccc(-c4cnc(N(C)C)nc4)cc3c21
IC50 [1]: 482 nM

C[C@H](c1ccccc1)n1nnc2cnc3ccc(-c4ccc(C#N)nc4)cc3c21
IC50 [1]: 167 nM

C[C@H](c1ccccc1)n1nnc2cnc3ccc(-c4ccc(N)cc4)cc3c21
IC50 [1]: 15 nM

Cn1nnc2cnc3ccc(-c4ccc(N)nc4)cc3c21
IC50 [1]: 243 nM

Cc1ccc(-c2ccc3ncc4nnn([C@H](C)c5ccccc5)c4c3c2)cn1
IC50 [1]: 35 nM

COc1cccc([C@@H](C)n2nnc3cnc4ccc(-c5ccc(N)nc5)cc4c32)c1
IC50 [1]: 5 nM

C[C@H](c1ccccc1)n1nnc2cnc3ccc(-c4ccc(OCCN(C)C)nc4)cc3c21
IC50 [1]: 19 nM

CC[C@@H](c1ccccc1)n1nnc2cnc3ccc(-c4ccc(N)nc4)cc3c21
IC50 [1]: 79 nM

C[C@H](c1ccccc1)n1nnc2cnc3ccc(-c4ccc(F)nc4)cc3c21
IC50 [1]: 57 nM

Nc1ccc(-c2ccc3ncc4nnn(Cc5ccccc5)c4c3c2)cn1
IC50 [1]: 8 nM

C[C@H](c1ccc(F)cc1)n1nnc2cnc3ccc(-c4ccc(N)nc4)cc3c21
IC50 [1]: 4 nM

C[C@H](c1ccccc1)n1nnc2cnc3ccc(-c4ccc(N5CCCC5)nc4)cc3c21
IC50 [1]: 71 nM

C[C@H](c1ccccc1)n1nnc2cnc3ccc(-c4ccc(N5CCN(C)CC5)nc4)cc3c21
IC50 [1]: 6 nM

C[C@H](c1ccccc1)n1nnc2cnc3ccc(-c4ccc(OCCCN5CCN(C)CC5)nc4)cc3c21
IC50 [1]: 2 nM
